Results from article PMC4414331 (The Prostate, 2012).

Molecular target: prostate-specific membrane antigen (PSMA) (Homo sapiens, UniProt Q04609)
Assay: purified PSMA, PABGgG hydrolysis by HPLC
Assay type: biochemical

prostate-specific membrane antigen (PSMA), sequence (Q04609 whole entry): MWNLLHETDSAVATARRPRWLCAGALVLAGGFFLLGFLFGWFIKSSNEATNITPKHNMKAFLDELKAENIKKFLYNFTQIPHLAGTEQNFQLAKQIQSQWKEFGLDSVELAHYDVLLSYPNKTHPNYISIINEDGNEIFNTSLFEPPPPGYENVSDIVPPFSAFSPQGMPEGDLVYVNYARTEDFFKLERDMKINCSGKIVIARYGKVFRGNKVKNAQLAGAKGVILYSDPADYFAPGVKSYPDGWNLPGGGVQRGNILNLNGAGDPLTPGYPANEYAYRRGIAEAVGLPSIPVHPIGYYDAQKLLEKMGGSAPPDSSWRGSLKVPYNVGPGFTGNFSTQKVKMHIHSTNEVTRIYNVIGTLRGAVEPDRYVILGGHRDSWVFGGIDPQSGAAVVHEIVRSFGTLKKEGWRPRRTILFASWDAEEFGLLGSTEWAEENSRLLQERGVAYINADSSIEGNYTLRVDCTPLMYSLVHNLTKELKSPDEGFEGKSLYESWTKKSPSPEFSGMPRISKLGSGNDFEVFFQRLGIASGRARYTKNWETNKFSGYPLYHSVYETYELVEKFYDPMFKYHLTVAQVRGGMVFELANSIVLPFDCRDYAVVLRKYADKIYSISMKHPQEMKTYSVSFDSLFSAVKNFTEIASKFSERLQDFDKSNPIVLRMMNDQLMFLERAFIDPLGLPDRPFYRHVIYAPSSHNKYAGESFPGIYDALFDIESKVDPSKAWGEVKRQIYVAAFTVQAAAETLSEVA

| IC50 | Substance |
| --- | --- |
| 6.6 nM | DBCO-PEG4-CTT-54.2 [compound 6] |
| 1 nM | DBCO-PEG4-CTT-54 [compound 5] |
